Laboratory results from PubChem BioAssay (NCI).
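Five concentrations, 48 hours, 96-well plates. TGI denotes the concentration required for complete inhibition of growth.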

Key:
Test in all cases: NCI-60 cell line screen, 48 h
SNB-19 CNS = test system: SNB-19 CNS
SN12C renal = test system: SN12C renal
SK-MEL-2 melanoma = test system: SK-MEL-2 melanoma
A549 NSCLC = test system: A549 NSCLC
CAKI-1 renal = test system: CAKI-1 renal
SW-620 colon = test system: SW-620 colon
SK-MEL-5 melanoma = test system: SK-MEL-5 melanoma
SK-OV-3 ovarian = test system: SK-OV-3 ovarian
HOP-92 NSCLC = test system: HOP-92 NSCLC
HL-60(TB) leukemia = test system: HL-60(TB) leukemia
NCI-H460 lung = test system: NCI-H460 lung
NCI-H23 lung = test system: NCI-H23 lung
NCI-H522 lung = test system: NCI-H522 lung
UACC-257 melanoma = test system: UACC-257 melanoma
CCRF-CEM leukemia = test system: CCRF-CEM leukemia
OVCAR-3 ovarian = test system: OVCAR-3 ovarian
RXF 393 renal = test system: RXF 393 renal
OVCAR-4 ovarian = test system: OVCAR-4 ovarian
KM12 colon = test system: KM12 colon
SNB-75 CNS = test system: SNB-75 CNS
HCC-2998 colon = test system: HCC-2998 colon
OVCAR-5 ovarian = test system: OVCAR-5 ovarian
SF-268 CNS = test system: SF-268 CNS
MALME-3M melanoma = test system: MALME-3M melanoma
NCI-H226 lung = test system: NCI-H226 lung
SF-539 CNS = test system: SF-539 CNS
HOP-18 NSCLC = test system: HOP-18 NSCLC
LOX IMVI melanoma = test system: LOX IMVI melanoma
MOLT-4 leukemia = test system: MOLT-4 leukemia
786-0 renal = test system: 786-0 renal
M19-MEL melanoma = test system: M19-MEL melanoma
DLD-1 colon = test system: DLD-1 colon
TK-10 renal = test system: TK-10 renal
RPMI-8226 leukemia = test system: RPMI-8226 leukemia
LXFL 529 NSCLC = test system: LXFL 529 NSCLC
XF 498 CNS = test system: XF 498 CNS
OVCAR-8 ovarian = test system: OVCAR-8 ovarian
COLO 205 colon = test system: COLO 205 colon
M14 melanoma = test system: M14 melanoma
EKVX NSCLC = test system: EKVX NSCLC
HT29 colon = test system: HT29 colon
UACC-62 melanoma = test system: UACC-62 melanoma
U251 CNS = test system: U251 CNS
ACHN renal = test system: ACHN renal
K-562 leukemia = test system: K-562 leukemia
DMS 273 small cell lung = test system: DMS 273 small cell lung
UO-31 renal = test system: UO-31 renal
IGROV1 ovarian = test system: IGROV1 ovarian
KM20L2 colon = test system: KM20L2 colon
SF-295 CNS = test system: SF-295 CNS
SK-MEL-28 melanoma = test system: SK-MEL-28 melanoma
HCT-15 colon = test system: HCT-15 colon
A498 renal = test system: A498 renal

Measured: TGI

O=C(O)CCCNS(=O)(=O)c1ccccc1
> 100 µM: all assays above
